Values quoted from earlier work as cited in patent US20230372346A1, “TREATMENT REGIMENS FOR EXON-20 INSERTION MUTANT EGFR CANCERS” (CULLINAN PEARL CORP., priority 2020, published 2023).

Tests used:
[1] = tested on: mutant EGFRs that possess in-frame insertion mutations in exon 20; settings: A763_Y764insFQEA, V769_D770insASV, D770_N771insG, D770_N771insSVD, H773_V774insNPH, H773_V774insPH; cited from earlier work
[2] = tested on: phosphorylation of EGFR and its downstream effectors; settings: cited from earlier work
[3] = tested on: subcutaneously-implanted tumors expressing EGFR with G719A+T790M mutations; settings: cited from earlier work
[4] = tested on: Ba/F3 cell lines harboring EGFR with mutations in exon 18 or exon 21; settings: cited from earlier work
WT EGFR = WT EGFR (Homo sapiens, UniProt P00533); settings: cited from earlier work
[5] = tested on: cells expressing EGFR with exon 20 insertion mutations; settings: cells expressing EGFR with exon 20 insertion mutations compared with cells expressing WT EGFR; cited from earlier work
[6] = tested on: NSCLC cell lines harboring mutant EGFR; settings: LXF 2478 and NCI-H1975 EGFR D770_N771insSVD cells; with inhibition of EGFR phosphorylation and induction of caspase 3/7; cited from earlier work
[7] = tested on: EGFR and EGFR mutants that harbor an exon 20 insertion mutation; settings: EGFR and exon 20 insertion mutants; cited from earlier work

Chain of WT EGFR (P00533 25-1210): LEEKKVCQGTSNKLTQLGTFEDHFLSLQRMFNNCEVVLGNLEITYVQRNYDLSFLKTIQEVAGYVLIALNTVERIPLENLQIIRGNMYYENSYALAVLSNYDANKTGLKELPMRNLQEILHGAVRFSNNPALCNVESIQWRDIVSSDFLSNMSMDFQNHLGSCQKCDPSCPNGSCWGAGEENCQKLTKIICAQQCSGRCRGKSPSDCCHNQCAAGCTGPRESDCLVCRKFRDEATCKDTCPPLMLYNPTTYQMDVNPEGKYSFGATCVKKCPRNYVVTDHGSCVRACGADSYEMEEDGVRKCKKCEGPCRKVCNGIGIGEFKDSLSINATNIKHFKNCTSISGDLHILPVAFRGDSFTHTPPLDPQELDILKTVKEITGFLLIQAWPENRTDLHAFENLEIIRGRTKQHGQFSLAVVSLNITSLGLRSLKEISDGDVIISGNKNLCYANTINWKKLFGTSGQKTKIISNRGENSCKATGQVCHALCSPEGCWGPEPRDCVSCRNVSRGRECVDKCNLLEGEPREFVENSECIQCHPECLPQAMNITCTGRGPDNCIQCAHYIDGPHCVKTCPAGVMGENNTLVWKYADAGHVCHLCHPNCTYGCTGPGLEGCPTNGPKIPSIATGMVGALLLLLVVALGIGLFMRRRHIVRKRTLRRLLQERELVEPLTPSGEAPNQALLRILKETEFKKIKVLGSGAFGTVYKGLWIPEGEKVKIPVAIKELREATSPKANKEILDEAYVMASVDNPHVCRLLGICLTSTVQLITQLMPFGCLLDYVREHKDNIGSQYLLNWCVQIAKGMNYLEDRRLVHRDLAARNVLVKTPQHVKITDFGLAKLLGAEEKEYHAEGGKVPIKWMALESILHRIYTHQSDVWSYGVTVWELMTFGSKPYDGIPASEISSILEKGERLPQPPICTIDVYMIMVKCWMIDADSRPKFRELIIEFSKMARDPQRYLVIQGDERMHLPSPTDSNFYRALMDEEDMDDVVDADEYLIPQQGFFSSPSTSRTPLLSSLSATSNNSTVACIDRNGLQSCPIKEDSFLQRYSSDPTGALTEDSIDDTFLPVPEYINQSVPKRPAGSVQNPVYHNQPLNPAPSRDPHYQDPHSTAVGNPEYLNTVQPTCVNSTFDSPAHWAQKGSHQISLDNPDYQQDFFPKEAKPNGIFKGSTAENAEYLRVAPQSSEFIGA

C=CC(=O)N[C@H]1C=C(C)c2c(-c3cnc4ccccc4c3)c3c(N)ncnc3n2C1 [Compound 1, (S)—N-(4-amino-6-methyl-5-(quinolin-3-yl)-8,9-dihydropyrimido[5,4-b]indolizin-8-yl)acrylamide]
potency in inhibiting the phosphorylation of mutant EGFRs [1]: intensive cellular potency | in vivo inhibitory effect on the phosphorylation of EGFR and its downstream effectors ([2]; human lung cancer xenografts harboring EGFR exon 20 insertions): potent and durable in vivo inhibitory effect | effect on skin tissue with WT EGFR ([2]; in vivo): spares skin tissue with WT EGFR | tumor growth inhibition ([3]; dose-dependent): significant tumor growth inhibition effects | body weight loss, fecal abnormalities, or skin abnormalities ([3]; mouse, in vivo): not effected at a cost of body weight loss, fecal abnormalities, or skin abnormalities | selectivity index compared to osimertinib ([4]; T790M in addition to either G719A or L861Q): higher | selectivity index (ratio between IC50 for WT EGFR and mutant EGFR cell lines) compared to erlotinib and afatinib [4]: much higher | inhibition against WT EGFR (WT EGFR): moderate inhibition | inhibitory effect on proliferation [5]: more potent and selective inhibitory effect | growth of NSCLC cells with EGFR exon 20 insertions [6]: suppressed the growth | inhibition of in vitro phosphorylation activity of EGFR and EGFR mutants [7]: inhibited
